The target of one series is KRAS G12D (Homo sapiens, UniProt P01116, G12D). The series is described as follows: GDP-GTP exchange assay (KRAS G12D).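 Further: one dagger IC50 up to 100 nM and two daggers above 100 nM up to 1 μM.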 In kind it is biochemical. The conditions noted are these: bodipy-GDP/GppNHp exchange with SOS1; 4 h pre-incubation, 2 h reaction. The gist of the method: (§1)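 IC50 came from a four-parameter fit of fluorescence loss (485/520 nm) as SOS1 (150 nM) swapped bodipy-GDP for GppNHp (500 μM) on 2.5 nM KRAS, final concentrations. Compounds were pre-incubated 4 h at r.t. (pH 7.5 Hepes, 10 mM MgCl2); exchange ran 2 h (G12D) or 3 h (G12V).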
KRAS G12D, sequence (P01116 1-188 isoform P01116-2 G12D): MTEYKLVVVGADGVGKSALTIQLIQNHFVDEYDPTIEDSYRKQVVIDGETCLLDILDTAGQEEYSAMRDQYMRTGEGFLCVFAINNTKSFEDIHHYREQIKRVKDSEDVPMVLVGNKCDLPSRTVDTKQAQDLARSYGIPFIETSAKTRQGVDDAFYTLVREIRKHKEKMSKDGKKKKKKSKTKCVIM

For another series, the target named is KRAS G12V (Homo sapiens, UniProt P01116, G12V). As to the kind of experiment: GDP-GTP exchange assay (KRAS G12V).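 Further: one dagger IC50 up to 100 nM and two daggers above 100 nM up to 1 μM.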 The conditions noted are these: bodipy-GDP/GppNHp exchange with SOS1; 3 h incubation after GppNHp-SOS1. It counts as biochemical. The gist of the method:
as §1

Series [1] is described as follows: Caco2 assay (permeability, Papp A-B). It counts as in vitro ADME. The settings on record: human, Caco-2, absorptive direction (A-B), 50 μM test compound, 4% BSA in receiver. The gist of the method:
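Absorptive (A-B) Papp: 50 μM test compound in HBSS added to apical side of 22-25-day Caco-2 monolayers (TEER 300 Ω·cm^2), receiver buffer containing 4% BSA. After 120 min at 37 °C, 5% CO2, both sides analysed by LCMS; Papp calculated from flux rate normalized to area and donor amount.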

Molecules are shown by their SMILES.

KRAS G12V, sequence (P01116 1-188 isoform P01116-2 G12V): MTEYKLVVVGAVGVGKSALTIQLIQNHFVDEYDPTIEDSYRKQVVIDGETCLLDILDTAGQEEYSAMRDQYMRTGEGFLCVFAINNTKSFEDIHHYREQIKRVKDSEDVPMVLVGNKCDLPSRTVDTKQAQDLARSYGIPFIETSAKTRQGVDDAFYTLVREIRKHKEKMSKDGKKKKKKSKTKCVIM

For the compound `Cc1nc2c(F)c(-c3cccc(Cl)c3Cl)c(CCC#N)cc2c2c1cc([C@H]1CCN(c3ccccc3)CCN1C(=O)C1CC1)n2[C@H]1[C@H]2CN[C@@H]1C2` (atropisomer, axis not shown; (Ra)) [Example 117, 3-((Ra)-1-((1R,4R,5S)-2-Azabicyclo[2.1.1]hexan-5-yl)-2-((R)-4-(cyclopropanecarbonyl)-1-phenyl-1,4-diazepan-5-yl)-7-(2,3-dichlorophenyl)-6-fluoro-4-methyl-1H-pyrrolo[3,2-c]quinolin-8-yl)propanenitrile], the “G12D_exchange (KRAS_G12D exchange assay IC50)” value (“G12D_exchange” below) on KRAS G12D is listed as “†”. On KRAS G12V, the “G12V_exchange (KRAS_G12V exchange assay IC50)” value (from here on “G12V_exchange”) was “†”. The apparent permeability from apical to basolateral (Papp A→B) at 120 min, 50 μM in series [1] is more than 1 ×10⁻⁶ cm/s.
Turning to `Cc1nc2c(F)c(-c3cccc(Cl)c3Cl)c(CCC#N)cc2c2c1cc([C@H]1C[C@H]3C[C@H](CN3c3ccccn3)N1C(=O)C1CC1)n2[C@H]1[C@H]2CN[C@@H]1C2` (atropisomer, axis not shown; (Ra)) [Example 118, 3-((Ra)-1-((1R,4R,5S)-2-Azabicyclo[2.1.1]hexan-5-yl)-2-((1R,3R,5R)-2-(cyclopropanecarbonyl)-6-(pyridin-2-yl)-2,6-diazabicyclo[3.2.1]octan-3-yl)-7-(2,3-dichlorophenyl)-6-fluoro-4-methyl-1H-pyrrolo[3,2-c]quinolin-8-yl)propanenitrile], on KRAS G12D, the “G12D_exchange” value was “†”. Moreover, on KRAS G12V, the “G12V_exchange” value was “†”. In addition, the Papp A→B at 120 min, 50 μM in series [1] is not above 0.5 ×10⁻⁶ cm/s.
For `Cc1nc2c(F)c(-c3cccc(Cl)c3Cl)c(CCC#N)cc2c2c1cc([C@H]1C[C@H]3C[C@H](CN3C(=O)c3ccccc3)N1C(=O)C1CC1)n2[C@H]1[C@H]2CN[C@@H]1C2` (atropisomer, axis not shown; (Ra)) [Example 119, 3-((Ra)-2-((1R,3R,5R)-6-Benzoyl-2-(cyclopropanecarbonyl)-2,6-diazabicyclo[3.2.1]octan-3-yl)-1-((1R,4R,5S)-2-azabicyclo[2.1.1]hexan-5-yl)-7-(2,3-dichlorophenyl)-6-fluoro-4-methyl-1H-pyrrolo[3,2-c]quinolin-8-yl)propanenitrile], the “G12D_exchange” value at KRAS G12D was “†”. The “G12V_exchange” value at KRAS G12V is “†”. This compound came in with an apical-to-basolateral permeability (Papp A→B) at 120 min, 50 μM in series [1] not above 0.5 ×10⁻⁶ cm/s.
As for `COC(=O)N1[C@@H]2C[C@@H](CN(c3cc(C(C)(F)F)ncn3)C2)[C@@H]1c1cc2c(C)nc3c(F)c(-c4cccc(Cl)c4Cl)c(CCC#N)cc3c2n1[C@H]1[C@H]2CN[C@@H]1C2` (atropisomer, axis not shown; (Ra)) [Example 124, Methyl (1 S,5R,7R)-7-((Ra)-1-((1R,4R,5S)-2-azabicyclo[2.1.1]hexan-5-yl)-8-(2-cyanoethyl)-7-(2,3-dichlorophenyl)-6-fluoro-4-methyl-1H-pyrrolo[3,2-c]quinolin-2-yl)-3-(6-(1,1-difluoroethyl)pyrimidin-4-yl)-3,6-diazabicyclo[3.2.1]octane-6-carboxylate], the “G12D_exchange” value on KRAS G12D was “†”. In addition, the “G12V_exchange” value at KRAS G12V is given as “†”. The compound also gave a Papp A→B at 120 min, 50 μM in series [1] not above 0.5 ×10⁻⁶ cm/s.
Consider `Cc1nc2c(F)c(-c3cccc(Cl)c3Cl)c(CCC#N)cc2c2c1cc([C@H]1[C@H]3C[C@H](CN(c4ccc(C(F)(F)F)cn4)C3)N1C(=O)C1CC1)n2[C@H]1[C@H]2CN[C@@H]1C2` [Example 30, 3-((Ra)-1-((1R,4R,5S)-2-Azabicyclo[2.1.1]hexan-5-yl)-2-((1 S,5R,7R)-6-(cyclopropanecarbonyl)-3-(5-(trifluoromethyl)pyridin-2-yl)-3,6-diazabicyclo[3.2.1]octan-7-yl)-7-(2,3-dichlorophenyl)-6-fluoro-4-methyl-1H-pyrrolo[3,2-c]quinolin-8-yl)propanenitrile], for which, on KRAS G12D, the “G12D_exchange” value is recorded as “†”. For the same compound, on KRAS G12V, the “G12V_exchange” value is “†”. For the same compound, the Papp A→B at 120 min, 50 μM in series [1] is not above 0.5 ×10⁻⁶ cm/s.
In the case of `Cc1nc2c(F)c(-c3cccc(Cl)c3Cl)c(CCC#N)cc2c2c1cc([C@H]1[C@H]3C[C@H](CN(c4ccnc(C(=O)N(C)C)c4)C3)N1C(=O)C1CC1)n2[C@H]1[C@H]2CN[C@@H]1C2` [Example 64, 4-((1S,5R,7R)-7-((Ra)-1-((1R,4R,5S)-2-azabicyclo[2.1.1]hexan-5-yl)-8-(2-cyanoethyl)-7-(2,3-dichlorophenyl)-6-fluoro-4-methyl-1H-pyrrolo[3,2-c]quinolin-2-yl)-6-(cyclopropanecarbonyl)-3,6-diazabicyclo[3.2.1]octan-3-yl)-N,N-dimethylpicolinamide], at KRAS G12D, the “G12D_exchange” value is “†”. Besides, the “G12V_exchange” value at KRAS G12V is given as “†”. In series [1], this compound showed a Papp A→B at 120 min, 50 μM not above 0.5 ×10⁻⁶ cm/s.
